Results published in patent US9856262B2, “Analogues of 4H-pyrazolo[1,5-a] benzimidazole compound as PARP inhibitors” (HUBEI BIO-PHARMACEUTICAL INDUSTRIAL TECHNOLOGICAL INSTITUTE …, priority 2014, dated 2018).
Like-named read-outs stand apart in the source and are kept apart here.

Tests used:
[1] = biological target: T1, PARP-1 (Homo sapiens, UniProt P09874); assay: PARP enzymatic assay (HT Universal Colorimetric PARP1 Assay Kit); format: biochemical; details: read-out: PARP-1 enzymatic inhibition IC50
T1 construct: purchased
T1 sequence (P09874 whole entry): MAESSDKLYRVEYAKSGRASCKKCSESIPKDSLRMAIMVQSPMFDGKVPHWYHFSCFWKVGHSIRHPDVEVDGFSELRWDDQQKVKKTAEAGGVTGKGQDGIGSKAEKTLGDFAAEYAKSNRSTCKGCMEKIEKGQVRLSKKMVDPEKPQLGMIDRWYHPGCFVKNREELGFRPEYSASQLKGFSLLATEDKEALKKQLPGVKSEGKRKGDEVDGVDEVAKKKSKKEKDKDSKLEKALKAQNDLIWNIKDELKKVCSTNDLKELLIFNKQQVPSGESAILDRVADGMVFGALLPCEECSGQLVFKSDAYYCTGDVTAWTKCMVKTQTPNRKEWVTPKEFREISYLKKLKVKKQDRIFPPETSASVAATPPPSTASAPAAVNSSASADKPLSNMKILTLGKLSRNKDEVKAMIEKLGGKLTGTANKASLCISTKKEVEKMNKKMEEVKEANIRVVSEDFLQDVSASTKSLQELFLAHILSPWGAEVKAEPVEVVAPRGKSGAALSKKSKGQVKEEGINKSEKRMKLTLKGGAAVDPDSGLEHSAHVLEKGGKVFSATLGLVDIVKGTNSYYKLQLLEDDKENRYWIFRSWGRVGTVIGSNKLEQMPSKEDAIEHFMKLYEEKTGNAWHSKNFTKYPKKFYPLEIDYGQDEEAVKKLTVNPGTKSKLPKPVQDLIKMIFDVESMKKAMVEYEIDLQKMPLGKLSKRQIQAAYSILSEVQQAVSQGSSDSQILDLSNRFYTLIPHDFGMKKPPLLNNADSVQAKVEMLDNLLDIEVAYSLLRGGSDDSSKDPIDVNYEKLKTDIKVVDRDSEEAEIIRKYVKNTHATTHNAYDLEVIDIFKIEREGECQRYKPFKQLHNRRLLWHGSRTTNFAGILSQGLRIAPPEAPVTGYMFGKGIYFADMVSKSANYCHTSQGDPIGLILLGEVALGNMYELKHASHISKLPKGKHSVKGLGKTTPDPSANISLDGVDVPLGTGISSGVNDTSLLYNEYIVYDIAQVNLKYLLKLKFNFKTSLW
Method: PARP Enzymatic Assay (Following the Manual of HT Universal Colorimetric PARP1 Assay Kit).
Histone proteins were coated on a 96-well plate and incubated overnight at 4° C. After be washed 3 times with 200 ul PBST solution, the plate was blocked with a blocking solution and incubated for 30 min at room temperature, and then washed with PBST solution 3 times. A compound to be tested was treated and added to the plate. Thereafter, 20 μl of diluted PARP1 (1 nM) or 20 μl of PARP2 (3 nM) solution was added into the reaction system and incubated for 1 or 2 hours. 50 ul of streptavidin-HRP mixture (1:50) was added into the plate and incubated for 30 min at room temperature. The plate was then washed with three times with PBST buffer. 100 μl of (HRP) (Chemiluminescent substrate A and substrate B (1:1)) was added into the plate, and the plate was immediately read on a microplate reader (Envision, PerkinElmer).

[2] = tested on: HCC1937 cells; assay: Cellular PARylation assay; format: cell-based; details: Homo sapiens
Method: Cellular PARylation Assay
HCC1937 cells were planted into 96 well plates at 4×10^4 cells/well and incubated at 37° C. in an incubator overnight. After being treated with a test compound for 30 min, cells were then treated with 1 mM H2O2 for 10 min. The cells were washed with 200 ul pre-chilled PBS twice and fixed with 100 ul pre-chilled methanol/acetone (7:3) on ice for 30 min. After being air-dried, the plates were blocked using PBS-Tween blocking solution (0.05%) with dissolved 5% nonfat dry milk for 30 min at room temperature. The cells were incubated with anti-PAR antibody 10H (1:100) at room temperature for 1 hour followed by washing with PBS-Tween20 for 3 times; and then added into a blocking solution including goat anti-mouse fluorescein isothiocyanate (FITC)-coupled secondary antibody and 1 μg/mL DAPI to incubate away from light at room temperature for 1 hour. After being washed with PBS-Tween20 for 3 times, the plate was analyzed with a fluorescence microplate counter (Flexstation III, Molecular Device).

[3] = HCC1937 cells, compound 30 min then 1 mM H2O2 10 min, read-out: cellular PARylation EC50

| SMILES | IC50 [1] | EC50 [2, 3] | EC50 ([2]; HCC1937, read-out: cellular PARylation EC50) |
| --- | --- | --- | --- |
| CN1CCC(c2cnn3c2[nH]c2cc(F)cc(C(N)=O)c23)C1 (stereo not shown) [Example 20, 6-fluoro-3-(1-methylpyrrolidin-3-yl)-4H-benzo[4,5]imidazo[1,2-b]pyrazole-8-carboxamide] | 1 to 100 nM | 1 to 100 nM | – |
| Cc1ncsc1CN1CCC(C)(c2cnn3c2[nH]c2cc(F)cc(C(N)=O)c23)CC1 [Example 83, 6-fluoro-3-(4-methyl-1-((4-methylthiazol-5-yl)methyl)piperidin-4-yl)-4H-benzo[4,5]imidazo[1,2-b]pyrazole-8-carboxamide] | 1 to 100 nM | 1 to 100 nM | – |
| CC1(c2cnn3c2[nH]c2cc(F)cc(C(N)=O)c23)CCN(C2CC(F)C2)CC1 (stereo not shown) [Example 76, 6-fluoro-3-(1-(3-fluorocyclobutyl)-4-methylpiperidin-4-yl)-4H-benzo[4,5]imidazo[1,2-b]pyrazole-8-carboxamide] | 1 to 100 nM | 1 to 100 nM | – |
| CC1(c2cnn3c2[nH]c2cc(F)cc(C(N)=O)c23)CCN(Cc2cccs2)CC1 [Example 77, 6-fluoro-3-(4-methyl-1-(thiophen-2-ylmethyl)piperidin-4-yl)-4H-benzo[4,5]imidazo[1,2-b]pyrazole-8-carboxamide] | 1 to 100 nM | 1 to 100 nM | – |
| CN1CCC(c2cnn3c2[nH]c2cc(F)cc(C(N)=O)c23)CC1 [Example 9, 6-fluoro-3-(1-methylpiperidin-4-yl)-4H-benzo[4,5]imidazo[1,2-b]pyrazole-8-carboxamide] | 1 to 100 nM | 1 to 100 nM | – |
| Cn1ccnc1CN1CCC(C)(c2cnn3c2[nH]c2cc(F)cc(C(N)=O)c23)CC1 [Example 84, 6-fluoro-3-(4-methyl-1-((1-methyl-1H-imidazol-2-yl)methyl)piperidin-4-yl)-4H-benzo[4,5]imidazo[1,2-b]pyrazole-8-carboxamide] | 1 to 100 nM | 1 to 100 nM | – |
| CC1(c2cnn3c2[nH]c2cc(F)cc(C(N)=O)c23)CCN(CCC#N)CC1 [Example 88, 3-(1-(2-cyanoethyl)-4-methylpiperidin-4-yl)-6-fluoro-4H-benzo[4,5]imidazo[1,2-b]pyrazole-8-carboxamide] | 1 to 100 nM | 1 to 100 nM | – |
| CC1(c2cnn3c2[nH]c2cc(F)cc(C(N)=O)c23)CCN(CC2(C#N)CCC2)CC1 [Example 64, 3-(1-((1-cyanocyclobutyl)methyl)-4-methylpiperidin-4-yl)-6-fluoro-4H-benzo[4,5]imidazo[1,2-b]pyrazole-8-carboxamide] | 1 to 100 nM | 101 to 1000 nM | – |
| COC(=O)C1(c2cnn3c2[nH]c2cc(F)cc(C(N)=O)c23)CCN(CC2CC2)CC1 [Example 110, methyl 4-(8-carbamoyl-6-fluoro-4H-benzo[4,5]imidazo[1,2-b]pyrazol-3-yl)-1-(cyclopropylmethyl)piperidine-4-carboxylate] | 1 to 100 nM | – | 101 to 1000 nM |
| Cc1ncc(CN2CCC(C)(c3cnn4c3[nH]c3cc(F)cc(C(N)=O)c34)CC2)n1C [Example 85, 3-(1-((1,2-dimethyl-1H-imidazol-5-yl)methyl)-4-methylpiperidin-4-yl)-6-fluoro-4H-benzo[4,5]imidazo[1,2-b]pyrazole-8-carboxamide] | 1 to 100 nM | 1 to 100 nM | – |
| CCN1CCC(N2CCC(C)(c3cnn4c3[nH]c3cc(F)cc(C(N)=O)c34)CC2)CC1 [Example 86, 3-(1′-ethyl-4-methyl-[1,4′-bipiperidin]-4-yl)-6-fluoro-4H-benzo[4,5]imidazo[1,2-b]pyrazole-8-carboxamide] | 1 to 100 nM | 1 to 100 nM | – |
| CC(C)N1CCC(c2cnn3c2[nH]c2cc(F)cc(C(N)=O)c23)C1 (stereo not shown) [Example 22, 6-fluoro-3-(1-isopropylpyrrolidin-3-yl)-4H-benzo[4,5]imidazo[1,2-b]pyrazole-8-carboxamide] | 1 to 100 nM | 1 to 100 nM | – |
| NC(=O)c1cc(F)cc2[nH]c3c(C4CCN(CC5CC5)CC4)cnn3c12 [Example 5, 3-(1-(cyclopropylmethyl)piperidin-4-yl)-6-fluoro-4H-benzo[4,5]imidazo[1,2-b]pyrazole-8-carboxamide] | 1 to 100 nM | 1 to 100 nM | – |
| CC1(c2cnn3c2[nH]c2cc(F)cc(C(N)=O)c23)CCN(CC2COC2)CC1 [Example 68, 6-fluoro-3-(4-methyl-1-(oxetan-3-ylmethyl)piperidin-4-yl)-4H-benzo[4,5]imidazo[1,2-b]pyrazole-8-carboxamide] | 1 to 100 nM | 1 to 100 nM | – |
| CCOC(=O)C1CC1CN1CCC(C)(c2cnn3c2[nH]c2cc(F)cc(C(N)=O)c23)CC1 (stereo not shown) [Example 80, ethyl 2-((4-(8-carbamoyl-6-fluoro-4H-benzo[4,5]imidazo[1,2-b]pyrazol-3-yl)-4-methylpiperidin-1-yl)methyl)cyclopropanecarboxylate] | 1 to 100 nM | 1 to 100 nM | – |
| CN(C)CCN1CCC(c2cnn3c2[nH]c2cc(F)cc(C(N)=O)c23)CC1 [Example 14, 3-(1-(2-(dimethylamino)ethyl)piperidin-4-yl)-6-fluoro-4H-benzo[4,5]imidazo[1,2-b]pyrazole-8-carboxamide] | 1 to 100 nM | 1 to 100 nM | – |
| CC1(c2cnn3c2[nH]c2cc(F)cc(C(N)=O)c23)CCN(CC2(N)CC2)CC1 [Example 67, 3-(1-((1-aminocyclopropyl)methyl)-4-methylpiperidin-4-yl)-6-fluoro-4H-benzo[4,5]imidazo[1,2-b]pyrazole-8-carboxamide] | 1 to 100 nM | 1 to 100 nM | – |
| CN(C)C(=O)C1CC1CN1CCC(C)(c2cnn3c2[nH]c2cc(F)cc(C(N)=O)c23)CC1 (stereo not shown) [Example 81] | 1 to 100 nM | 1 to 100 nM | – |

Second part, led by results:

| IC50 [1] | EC50 [2, 3] | SMILES | EC50 ([2]; HCC1937, read-out: cellular PARylation EC50) |
| --- | --- | --- | --- |
| 1 to 100 nM | 1 to 100 nM | CC(C)N1CCC(C)(c2cnn3c2[nH]c2cc(F)cc(C(N)=O)c23)C1 (stereo not shown) [Example 92, 6-fluoro-3-(1-isopropyl-3-methylpyrrolidin-3-yl)-4H-benzo[4,5]imidazo[1,2-b]pyrazole-8-carboxamide] | – |
| 101 to 1000 nM | > 1000 nM | N#Cc1cnn2c1[nH]c1cccc(C(N)=O)c12 [Example 38, 3-cyano-4H-benzo[4,5]imidazo[1,2-b]pyrazole-8-carboxamide] | – |
| 1 to 100 nM | 101 to 1000 nM | CC1(c2cnn3c2[nH]c2cc(F)cc(C(N)=O)c23)CCN(CC2(C#N)CCC2)C1 (stereo not shown) [Example 101, 3-(1-((1-cyanocyclobutyl)methyl)-3-methylpyrrolidin-3-yl)-6-fluoro-4H-benzo[4,5]imidazo[1,2-b]pyrazole-8-carboxamide] | – |
| 1 to 100 nM | 1 to 100 nM | CC1(c2cnn3c2[nH]c2cc(F)cc(C(N)=O)c23)CCN(CC2CC2(F)F)C1 (stereo not shown) [Example 96, 3-(1-((2,2-difluorocyclopropyl)methyl)-3-methylpyrrolidin-3-yl)-6-fluoro-4H-benzo[4,5]imidazo[1,2-b]pyrazole-8-carboxamide] | – |
| 1 to 100 nM | > 1000 nM | NC(=O)c1cc(F)cc2[nH]c3c(C4CCOCC4)cnn3c12 [Example 47, 6-fluoro-3-(tetrahydro-2H-pyran-4-yl)-4H-benzo[4,5]imidazo[1,2-b]pyrazole-8-carboxamide] | – |
| 1 to 100 nM | 1 to 100 nM | CN1CCCC1c1cnn2c1[nH]c1cc(F)cc(C(N)=O)c12 (stereo not shown) [Example 25, 6-fluoro-3-(1-methylpyrrolidin-2-yl)-4H-benzo[4,5]imidazo[1,2-b]pyrazole-8-carboxamide] | – |
| 1 to 100 nM | 1 to 100 nM | CC1(c2cnn3c2[nH]c2cc(F)cc(C(N)=O)c23)CCN(CC2(N)CC2)C1 (stereo not shown) [Example 100, 3-(1-((1-aminocyclopropyl)methyl)-3-methylpyrrolidin-3-yl)-6-fluoro-4H-benzo[4,5]imidazo[1,2-b]pyrazole-8-carboxamide] | – |
| 1 to 100 nM | 1 to 100 nM | NC(=O)c1cc(F)cc2[nH]c3c(C45CC4CN(C4CCC4)C5)cnn3c12 (stereo not shown) [Example 30, 3-(3-cyclobutyl-3-azabicyclo[3.1.0]hexan-1-yl)-6-fluoro-4H-benzo[4,5]imidazo[1,2-b]pyrazole-8-carboxamide] | – |
| 1 to 100 nM | 1 to 100 nM | CC1(c2cnn3c2[nH]c2cc(F)cc(C(N)=O)c23)CCN(CCF)C1 (stereo not shown) [Example 95, 6-fluoro-3-(1-(2-fluoroethyl)-3-methylpyrrolidin-3-yl)-4H-benzo[4,5]imidazo[1,2-b]pyrazole-8-carboxamide] | – |
| 1 to 100 nM | 101 to 1000 nM | CC1(c2cnn3c2[nH]c2cc(F)cc(C(N)=O)c23)CCN(CCS(C)(=O)=O)C1 (stereo not shown) [Example 98, 6-fluoro-3-(3-methyl-1-(2-(methylsulfonyl)ethyl)pyrrolidin-3-yl)-4H-benzo[4,5]imidazo[1,2-b]pyrazole-8-carboxamide] | – |
| 1 to 100 nM | 101 to 1000 nM | CC1(c2cnn3c2[nH]c2cc(F)cc(C(N)=O)c23)CCN(C2COC2)C1 (stereo not shown) [Example 94, 6-fluoro-3-(3-methyl-1-(oxetan-3-yl)pyrrolidin-3-yl)-4H-benzo[4,5]imidazo[1,2-b]pyrazole-8-carboxamide] | – |
